In patent US4263302A, “Quinolinecarboxylic acid substituted penicillins and pharmaceutical compositions containing the same” (Mitsui Toatsu Chemicals, Incorporated, priority 1978, dated 1981):
In brackets after ≈: the same amount, converted by molar mass. Where two headings read alike, the source gives them in different places.

Experiments:
Pseudomonas aeruginosa = conditions: in words, background literature; cited from earlier work
[1] = test system: Staphylococcus aureus (Y-8); assay: antibacterial activity, minimum growth inhibitory concentration method (MIC method); assay type: cell-based; conditions: HIA medium, 37° C., 18 hours
Protocol: (§1) The antibacterial activity was tested by the minimum growth inhibitory concentration method (MIC method).
(§2) A commercially available heart infusion agar medium (to be abbreviated HIA medium) was used as an assay medium, and a commercially available trypto-soy bouillon medium (to be abbreviated TSB) was used as a medium for the growth of test bacterial strains.
(§3) The test compound was diluted with the melted HIA medium to 100 μg/ml as a maximum concentration, and then serially diluted doubly. The dilutions were poured into sterilized Petri dishes respectively and allowed to cool and solidify to prepare plates containing the test compound.
(§4) As a control, carbenicillin sodium (CB-PC) was used.
(§5) The test strain was cultivated in the TBS medium at 37° C. for 18 hours, and the culture broth was diluted with a freshly prepared TBS medium to 50 to 500 times, and one platinum loopful of the dilution was inoculated in each of the plates containing the test compound. The plate was incubated at 37° C. for 18 hours. The state of growth of the strain on the plate was observed, and the minimum growth inhibitory concentration (MIC) of the compound was determined.

Escherichia coli (K-12) = assay: as above; assay type: cell-based; conditions: HIA medium, 37° C., 18 hours
Protocol: as §1, §2, §3, §4, §5

[2] = test system: Klebsiella pneumoniae (ATCC 10031); assay: as above; assay type: cell-based; conditions: ATCC10031, HIA medium, 37° C., 18 hours
Protocol: as §1, §2, §3, §4, §5

[3] = test system: Salmonellaenteritidis (KB-21); assay: as above; assay type: cell-based; conditions: read-out: Minimum growth inhibitory concentration (MIC)
Protocol: as §1, §2, §3, §4, §5

[4] = test system: Staphylococcus aureus (FDA 209P); assay: as above; assay type: cell-based; conditions: FDA209P, read-out: Minimum growth inhibitory concentration (MIC)
Protocol: as §1, §2, §3, §4, §5

[5] = test system: Pseudomonas aeruginosa (395); assay: as above; assay type: cell-based; conditions: HIA medium, 37° C., 18 hours
Protocol: as §1, §2, §3, §4, §5

[6] = test system: Pseudomonas aeruginosa (IFO-3901); assay: as above; assay type: cell-based; conditions: IFO3901, HIA medium, 37° C., 18 hours
Protocol: as §1, §2, §3, §4, §5

[7] = test system: Serratia marcescens (S-33); assay: as above; assay type: cell-based; conditions: HIA medium, 37° C., 18 hours
Protocol: as §1, §2, §3, §4, §5

Proteus vulgaris (OX-19) = assay: as above; assay type: cell-based; conditions: HIA medium, 37° C., 18 hours
Protocol: as §1, §2, §3, §4, §5

[8] = test system: Enterobacter aerogenes (IFO-3320); assay: as above; assay type: cell-based; conditions: Klebsiella aerogenes, read-out: Minimum growth inhibitory concentration (MIC)
Protocol: as §1, §2, §3, §4, §5

Shigella flexneri (K-A) = assay: as above; assay type: cell-based; conditions: HIA medium, 37° C., 18 hours
Protocol: as §1, §2, §3, §4, §5

[9] = Salmonellaenteritidis (KB-21), HIA medium, 37° C., 18 hours
[10] = IFO3320, Enterobacter aerogenes (IFO-3320), HIA medium, 37° C., 18 hours

| SMILES | activity on Pseudomonas aeruginosa (Pseudomonas aeruginosa) | effect on Pseudomonas aeruginosa-induced infections of difficultly-curable nature (Pseudomonas aeruginosa) | MIC [1] [µg/mL] | MIC (Escherichia coli (K-12)) [µg/mL] | MIC [2] [µg/mL] | MIC ([3]; 18 h) [µg/mL] | MIC ([4]; Staphylococcus aureus, 18 h) [µg/mL] | MIC [5] [µg/mL] | MIC [6] [µg/mL] | MIC [7] [µg/mL] | MIC (Proteus vulgaris (OX-19)) [µg/mL] | MIC ([8]; IFO3320, 18 h) [µg/mL] | MIC (Shigella flexneri (K-A)) [µg/mL] | MIC [3, 9] [µg/mL] | MIC [8, 10] [µg/mL] | MIC ([4]; Staphylococcus aureus (FDA 209P), HIA medium, 37° C., 18 hours) [µg/mL] |
| --- | --- | --- | --- | --- | --- | --- | --- | --- | --- | --- | --- | --- | --- | --- | --- | --- |
| CC1(C)S[C@@H]2[C@H](NC(=O)C(C(=O)O)c3ccccc3)C(=O)N2[C@H]1C(=O)O (stereo partly drawn) [CB--PC, disodium-α-carboxybenzyl penicillin, reference compound] | low activity | ineffective | 6.25 | 6.25 | > 100 | 1.56 | 1.56 | 25 | 100 | 3.13 | 3.13 | 1.56 | 1.56 | – | – | – |
| CC1(C)CC(=O)c2c([nH]cc(C(=O)N[C@@H](C(=O)N[C@@H]3C(=O)N4[C@@H]3SC(C)(C)[C@@H]4C(=O)O)c3ccccc3)c2=O)C1 [Synthesis Example 1, 6-[D-(-)-α-(7,7-dimethyl-4,5-dioxo-1,4,5,6,7,8-hexahydroquinoline-3-carboxamido)phenylacetamido]-penicillanic acid] | – | – | 6.25 (≈ 11 µM) | 0.78 (≈ 1.38 µM) | 12.5 (≈ 22.1 µM) | – | 1.56 (≈ 2.75 µM) | 1.56 (≈ 2.75 µM) | 6.25 (≈ 11 µM) | 3.13 (≈ 5.52 µM) | 1.56 (≈ 2.75 µM) | – | 0.39 (≈ 0.688 µM) | 0.39 (≈ 0.688 µM) | 0.78 (≈ 1.38 µM) | – |
| CCn1cc(C(=O)N[C@@H](C(=O)N[C@@H]2C(=O)N3[C@@H]2SC(C)(C)[C@@H]3C(=O)O)c2ccccc2)c(=O)c2c1CCCC2=O [Synthesis Example 2, 6-[D-(-)-α-(1-ethyl-4,5-dioxo-1,4,5,6,7,8-hexahydroquinoline-3-carboxamodo)phenylacetamido]-penicillanic acid] | – | – | 6.25 (≈ 11 µM) | 3.13 (≈ 5.52 µM) | 25 (≈ 44.1 µM) | – | – | 3.13 (≈ 5.52 µM) | 6.25 (≈ 11 µM) | 3.13 (≈ 5.52 µM) | 3.13 (≈ 5.52 µM) | – | 0.78 (≈ 1.38 µM) | 0.78 (≈ 1.38 µM) | 1.56 (≈ 2.75 µM) | 1.56 (≈ 2.75 µM) |
